In EP0391644B1, “Aryl-substituted rhodanine derivatives” (ELI LILLY AND COMPANY, priority 1989, dated 1990):
Values joined by “and” are separate entries in the source; they are usually repeats but may differ in a detail not shown here. Identical values can stand only once.

Key:
[1] = system: adjuvant-induced arthritis; test: Developing Adjuvant-Induced Arthritis Test in Rats; type: in vivo, male Lewis-Wistar rats; details: Rattus norvegicus, po, 720 h, AUC of uninjected paw volumes, Days 16 through 30, read-out: % Inhibition of Uninjected Paw Volume Inflammation; for inhibition in vivo at 50 mg/kg: 50 mg/kg P.O. x 29
[2] = system: ischemia-induced brain damage in the hippocampal CA1 region; test: Stroke model in rats; type: in vivo, Male Wistar rats; details: mean ± standard error, scale 0 = no damage to 3 = severe damage of CA1 layer
Excerpt: Strokes were produced in rats by occluding the four arteries that supply blood to the brain according to the following procedure. Male Wistar rats were anesthetized with Metofane and placed into a stereotaxic instrument. A longitudinal incision was made on the dorsal surface of the neck. The neck muscles were reflected to expose the dorsal surface of the spinal column. The two vertebral arteries were exposed where they pass through the first cervical vertebra. Both arteries were permanently occluded by the application of electrocautery. After coagulation of the vertebral arteries, the rat was removed from the stereotaxic instrument and the surgical wound was sutured. Two longitudinal incisions were then made on the ventral surface of the neck. The two common carotid arteries were exposed and dissected free from surrounding nerves and connective tissue. An atraumatic clasp, fabricated mainly from silicon rubber tubing, was placed around each carotid artery in a manner such that the vessel was not traumatized or occluded. The surgical wounds were then closed. The atraumatic clasps were designed in such a manner that they could be tightened to occlude the carotid arteries by pulling on a small silastic thread that was allowed to protrude from the wound. Circulation to the brain through the carotids could be restored by relieving the tension on the silastic threads. After the surgery, the rats were allowed to recover for 24 hours.
On the day of testing, compounds were suspended in 2% acacia and were administered orally at various times before stroke induction. Strokes (cerebral ischemia) were induced by tightening the clasps around the carotids for a period of 30 minutes. During this time, rats in which strokes had successfully been produced lost the righting reflex and became unresponsive to stimuli. After 30 minutes of ischemia, tension on the clasps was removed and blood flow to the brain restored. Rats were again treated with compounds on the morning after the stroke. On the third day after the stroke the animals received an overdose of barbituate anesthetic, and the brain was perfused in situ with 10% neutral, buffered formalin. After perfusion with amounts of formalin adequate to fix the brain, the brains were removed and stored in 10% formalin until histological sections could be prepared.
One of the areas of the brain that is most susceptible to ischemia induced damage both in the rat and the human is the CA1 pyramidal cell layer of the hippocampus. In animals that remain unresponsive for the 30 minute period of ischemia, the CA1 pyramidal cell layer is completely destroyed. This layer of cells was examined microscopically in histological sections prepared from the hippocampus. Brain damage was rated according to the following scale: 0 = no damage, completely intact cell layer 1 = mild damage, one-third of CA1 layer dead 2 = moderate damage, two-thirds of CA1 layer dead 3 = severe damage, complete destruction of CA1 layer
Damage in 10-12 sections from each brain was assessed in order to obtain an accurate estimate of damage. An average damage score was calculated for each treatment group. Scores from treated groups were compared statistically with scores from control groups which received only the vehicle (2% acacia) that was used to suspend the compounds. The level of significance was determined using Student's "t-test".

Dystrophic mice (dy/dy) = test: Muscular Dystrophy Animal Model; type: in vivo
Description: Dystrophic mice (dy/dy) were obtained from Jackson Laboratories after weaning (approximately 21 days) and treatment with the compounds shown in Table V was begun at the first sign of dystrophy. The compounds that were tested were administered in the diet and lifespan was measured during the course of treatment. The food and water sources were located in different parts of the cage requiring the animals to walk from the food source to the water source to survive.

inflammation = test: Carrageenin Assay; type: in vivo; details: Rattus norvegicus, po; 50 mg/kg orally by gavage; carrageenin-injected hind paws of rats; read-out: Percent Inhibition
Description: The compounds were evaluated for antiinflammatory activity in the test method described by C.A. Winter, Proc. Soc. Exp. Biol. Med., 111, 544 (1962). In this test, inflammation is created by injecting carrageenin into the hind paws of rats. Test compounds are administered prior to injection to determine percent inhibition of the subsequent inflammation in comparison with control animals.

[3] = 100 mg/kg given orally as a suspension in 2% acacia
[4] = 0.03 percent by weight of compound in diet
[5] = 50 mg/kg given orally as a suspension in 2% acacia

| SMILES | inhibition in vivo at 50 mg/kg [1] | Damage Score [2, 3] | also measured |
| --- | --- | --- | --- |
| CC(C)(C)c1cc(C=C2SCN(CC(N)=O)C2=O)cc(C(C)(C)C)c1O [Example 5, 5-{[3,5-bis(1,1-dimethylethyl)-4-hydroxyphenyl]methylene}-4-oxo-3-thiazolidineacetamide] | 7% | 1.8 ± 0.4 (p=0.05) |  |
| CSCCN1CSC(=Cc2cc(C(C)(C)C)c(O)c(C(C)(C)C)c2)C1=O [Example 6, 5-{[3,5-bis(1,1-dimethylethyl)-4-hydroxyphenyl]methylene}-3-[2-(methylthio)ethyl]-4-thiazolidinone] |  | 2.5 ± 0.2 |  |
| COCCN1CSC(=Cc2cc(C(C)(C)C)c(O)c(C(C)(C)C)c2)C1=O [Example 7, 5-{[3,5-bis(1,1-dimethylethyl)-4-hydroxyphenyl]methylene}-3-(2-methoxyethyl)-4-thiazolidinone] | 30% | 2.5 ± 0.2 |  |
| CN1CSC(=Cc2cc(C(C)(C)C)c(O)c(C(C)(C)C)c2)C1=O [Example 10, 5-{[3,5-bis(1,1-dimethylethyl)-4-hydroxyphenyl]methylene}-3-methyl-4-thiazolidinone] | 57% | 0.75 ± 0.26 (p<0.02) | Average Life Span (Dystrophic mice (dy/dy); [4]): 93 days and 112 days and 90 days and 80 days and 110 days; Average Life Span (Dystrophic mice (dy/dy); 0.08 percent by weight of compound in diet): 45 days and 67 days; Average Life Span (Dystrophic mice (dy/dy); 0.3 percent by weight of compound in diet): 83 days |
| CN1CSC(Cc2cc(C(C)(C)C)c(O)c(C(C)(C)C)c2)C1=O (stereo not drawn) [Example 11, 5-{[3,5-bis(1,1-dimethylethyl)-4-hydroxyphenyl]methyl}-3-methyl-4-thiazolidinone] | 19.7% | 2.1 ± 0.3 |  |
| CN1C[S+]([O-])C(=Cc2cc(C(C)(C)C)c(O)c(C(C)(C)C)c2)C1=O (stereo not drawn) [Example 12, 5-{[3,5-bis(1,1-dimethylethyl)-4-hydroxyphenyl]methylene}-3-methyl-4-thiazolidinone, 1-oxide] | 4.8% | 1.8 ± 0.4 |  |
| CN1CS(=O)(=O)C(=Cc2cc(C(C)(C)C)c(O)c(C(C)(C)C)c2)C1=O [Example 13, 5-{[3,5-bis(1,1-dimethylethyl)-4-hydroxyphenyl]methylene}-3-methyl-4-thiazolidinone, 1,1-dioxide] | 8.7% | 2.1 ± 0.3 |  |
| CCN1CSC(=Cc2cc(C(C)(C)C)c(O)c(C(C)(C)C)c2)C1=O [Example 14, 5-{[3,5-Bis(1,1-dimethylethyl)-4-hydroxyphenyl]methylene}-3-ethyl-4-thiazolidinone] | 6% |  | inhibition in vivo at 50 mg/kg (inflammation): 43% |
| CCCN1CSC(=Cc2cc(C(C)(C)C)c(O)c(C(C)(C)C)c2)C1=O [Example 15, 5-{[3,5-bis(1,1-dimethylethyl)-4-hydroxyphenyl]methylene}-3-propyl-4-thiazolidinone] | 40% |  | inhibition in vivo at 50 mg/kg (inflammation): 42% |
| CC(C)(C)c1cc(C=C2SC(=S)N(C3CC3)C2=O)cc(C(C)(C)C)c1O [Example 18, 5-{[3,5-bis(1,1-dimethylethyl)-4-hydroxyphenyl]methylene}-3-cyclopropyl-2-thioxo-4-thiazolidinone] |  |  | inhibition in vivo at 50 mg/kg (inflammation): 22% |
| CN(C)N1CSC(=Cc2cc(C(C)(C)C)c(O)c(C(C)(C)C)c2)C1=O [Example 21, 5-{[3,5-bis(1,1-dimethylethyl)-4-hydroxyphenyl]methylene}-3-dimethylamino-4-thiazolidinone] | 81% |  | Damage Score [2, 5]: 1.9 ± 0.3; Average Life Span (Dystrophic mice (dy/dy); [4]): 151 days |
| CN(C)N1C[S+]([O-])C(=Cc2cc(C(C)(C)C)c(O)c(C(C)(C)C)c2)C1=O (stereo not drawn) [Example 22, 5-{[3,5-bis(1,1-dimethylethyl)-4-hydroxyphenyl]methylene}-3-(dimethylamino)-4-thiazolidinone, 1-oxide] | 1% | 2.3 ± 0.3 |  |
| CC(C)(C)c1cc(C=C2C(=O)NC[S+]2[O-])cc(C(C)(C)C)c1O (stereo not drawn) [Example 23, 5-{[3,5-bis(1,1-dimethylethyl)-4-hydroxyphenyl]methylene}-4-thiazolidinone, 1-oxide] | 28% | 2.2 ± 0.4 |  |
| CC(=O)OCCN1CSC(=Cc2cc(C(C)(C)C)c(O)c(C(C)(C)C)c2)C1=O [Example 26, 5-{[3,5-bis(1,1-dimethylethyl)-4-hydroxyphenyl]-methylene}-3-[2-(acetyloxy)ethyl]-4-thiazolidinone] | 30.4% | 1.9 ± 0.4 |  |
| CNCCN1CSC(=Cc2cc(C(C)(C)C)c(O)c(C(C)(C)C)c2)C1=O [Example 28, 5-{[3,5-bis(1,1-dimethylethyl)-4-hydroxyphenyl]methylene}-3-[2-(methylamino)ethyl]-4-thiazolidinone] | 72% |  | Damage Score [2, 5]: 1.0 ± 0.4 (p=0.009) |
| CC(C)(C)c1cc(C=C2SCN(CCO)C2=O)cc(C(C)(C)C)c1O [Example 35, 5-{[3,5-bis(1,1-dimethylethyl)-4-hydroxyphenyl]methylene}-3-(2-hydroxyethyl)-4-thiazolidinone] |  | 0.9 ± 0.4 (p<0.001) | inhibition in vivo at 75 mg/kg ([1]; 75 mg/kg P.O. x 29): 86%; Average Life Span (Dystrophic mice (dy/dy); 0.05 percent by weight of compound in diet): 107 days |
| COc1ccc(CN2CSC(=Cc3cc(C(C)(C)C)c(O)c(C(C)(C)C)c3)C2=O)cc1 [Example 36, 5-{[3,5-bis(1,1-dimethylethyl)-4-hydroxyphenyl]methylene}-3-[(4-methoxyphenyl)methyl]-4-thiazolidinone] |  | 2.3 ± 0.4 |  |
| CC(C)(C)c1cc(C=C2SCN(CC#N)C2=O)cc(C(C)(C)C)c1O [Example 38, 5-{[3,5-bis(1,1-dimethylethyl)-4-hydroxyphenyl]methylene}-4-oxo-3-thiazolidineacetonitrile] | 1.8% |  | Damage Score ([2]; 200 mg/kg given orally as a suspension in 2% acacia): 1.6 ± 0.04 |
| Cc1cc(C=C2SCN(C)C2=O)cc(C(C)(C)C)c1O [Example 61, 5-{[3-(1,1-dimethylethyl)-4-hydroxy-5-methylphenyl]methylene}-3-methyl-4-thiazolidinone] | 5.3% |  | Damage Score [2, 5]: 1.7 ± 0.3 (p=0.03) |
| Cc1cc(C=C2SCN(N(C)C)C2=O)cc(C(C)(C)C)c1O [Example 62, 5-{[3-(1,1-dimethylethyl)-4-hydroxy-5-methylphenyl]methylene}-3-dimethylamino-4-thiazolidinone] | 11.2% | 1.2 ± 0.3 (p<0.05) |  |
| CC(C)(C)c1cc(C=C2SC(=O)NC2=O)cc(C(C)(C)C)c1O [Example 67, 5-{[3,5-bis(1,1-dimethylethyl)-4-hydroxyphenyl]methylene}-2,4-thiazolidinedione] |  | 1.4 ± 0.3 (p<0.05) |  |
| CC(C)(C)c1cc(C=C2CCNC2=O)cc(C(C)(C)C)c1O [Example 69, 3-{[3,5-bis(1,1-dimethylethyl)-4-hydroxyphenyl]methylene}-2-pyrrolidinone] |  |  | Damage Score [2, 5]: 0.98 ± 0.42 (p=0.037) |
| CN1CCC(=Cc2cc(C(C)(C)C)c(O)c(C(C)(C)C)c2)C1=O [Example 70, 3-{[3,5-bis(1,1-dimethylethyl)-4-hydroxyphenyl]-methylene}-1-methyl-2-pyrrolidinone] |  | 0.7 ± 0.4 (p=0.039) |  |
